Assay results as given in ChEMBL document CHEMBL4177563, “The medicinal chemistry of Chikungunya virus” (Bioorg Med Chem, 2017).

Assays:
Chikungunya virus [1] = assay: Antiviral activity against Chikungunya virus infected in African green monkey Vero cells; format: functional, organism-based
[2] = Selectivity index, ratio of CC50 for African green monkey Vero cells to EC50 for Chikungunya virus; format: toxicity; conditions: read-out: Ratio CC50/EC50
Vero = assay: Cytotoxicity against African green monkey Vero cells assessed as reduction in cell viability measured on day 5 post dose by MTS/PMS based microscopic analysis; conditions: chlorocebus sabaeus
Chikungunya virus [3] = assay: Antiviral activity against Chikungunya virus 899 infected in African green monkey Vero cells assessed as inhibition of virus-induced cytopathogenic effect measured on day 5 post infection by MTS/PMS based microscopic analysis; format: functional, organism-based; conditions: Chikungunya virus, 899, Vero, 120 h
Chikungunya virus [4] = assay: Antiviral activity against Chikungunya virus LR2006 OPY1 infected in human MRC5 cells after 48 hrs by indirect immunofluorescence analysis; format: functional, organism-based; conditions: LR2006 OPY1, MRC5, 48 h
Chikungunya virus [5] = assay: Antiviral activity against Chikungunya virus C347 infected in African green monkey Vero cells assessed as inhibition of viral-induced cytopathic effect after 2 days by microscopic analysis; format: functional, organism-based; conditions: 48 h
Chikungunya virus [6] = assay: Antiviral activity against Chikungunya virus 899 infected in African green monkey Vero A cells assessed as inhibition of virus-induced cytopathogenic effect measured on day 5 post infection by MTS/PMS based microscopic analysis; format: functional, organism-based; conditions: Chikungunya virus, 899, Vero, 120 h
[7] = Cytotoxicity against African green monkey Vero A cells assessed as reduction in cell viability measured on day 5 post infection by MTS/PMS based microscopic analysis; conditions: chlorocebus sabaeus
Chikungunya virus [8] = assay: Antiviral activity against Chikungunya virus 899 infected in African green monkey Vero A cells by real-time qRT-PCR analysis; format: functional, organism-based; conditions: Chikungunya virus, 899, Vero
Chikungunya virus [9] = assay: Antiviral activity against Chikungunya virus 899 infected in African green monkey Vero A cells assessed as reduction in viral infectious progeny by end-point titration assay; format: functional, organism-based; conditions: Chikungunya virus, 899, Vero
[10] = Selectivity index, ratio of CC50 for African green monkey Vero cells to IC50 for Chikungunya virus nsP2 protease; format: toxicity; conditions: read-out: Ratio CC50/IC50
[11] = Cytotoxicity against human U2OS cells assessed as reduction in cell viability after 16 hrs by CCK-8 assay; format: cell-based
[12] = Selectivity index, ratio of CC50 for BHK-21 cells to EC50 for Chikungunya virus 0810bTw; format: toxicity; conditions: hamster, read-out: Ratio CC50/EC50
Chikungunya virus [13] = assay: Antiviral activity against Chikungunya virus infected in BHK-21 cells by RT-qPCR analysis; format: functional, organism-based
Chikungunya virus [14] = assay: Antiviral activity against Chikungunya virus infected in human U2OS cells by RT-qPCR analysis; format: functional, organism-based
[15] = Selectivity index, ratio of CC50 for human U2OS cells to EC50 for Chikungunya virus; format: toxicity; conditions: read-out: Ratio CC50/EC50
[16] = Cytotoxicity against BHK21 cells assessed as reduction in cell viability after 16 hrs by CCK-8 assay; format: cell-based, Mesocricetus auratus; conditions: hamster, BHK-21 cells
Chikungunya virus [17] = assay: Antiviral activity against Chikungunya virus 0810bTw infected in BHK-21 cells by RT-qPCR analysis; format: functional, organism-based
Chikungunya virus [18] = assay: Antiviral activity against Chikungunya virus 0611aTw infected in BHK-21 cells by RT-qPCR analysis; format: functional, organism-based
[19] = Selectivity index, ratio of CC50 for BHK-21 cells to EC50 for Chikungunya virus; format: toxicity; conditions: hamster, read-out: Ratio CC50/EC50
[20] = Selectivity index, ratio of CC50 for BHK-21 cells to EC50 for Chikungunya virus 0611aTw; format: toxicity; conditions: hamster, read-out: Ratio CC50/EC50
[21] = Cytotoxicity against human Huh7.5 cells in presence of ATP by Celltiter-Glo assay; format: cell-based
[22] = Selectivity index, ratio of CC50 for BHK21 cells to EC50 for Chikungunya virus; format: toxicity; conditions: hamster, BHK-21 cells; read-out: Ratio CC50/EC50
[23] = Cytotoxicity against BHK21 cells in presence of ATP by Celltiter-Glo assay; format: cell-based, Mesocricetus auratus; conditions: hamster, BHK-21 cells
Chikungunya virus [24] = assay: Antiviral activity against Chikungunya virus LR2006-OPY1 infected in BHK21 cells after 48 hrs by luciferase reporter gene assay; format: functional, organism-based; conditions: LR2006-OPY1, BHK-21, 48 h
[25] = Selectivity index, ratio of CC50 for human Huh7.5 cells to EC50 for Chikungunya virus; format: toxicity; conditions: read-out: Ratio CC50/EC50
Chikungunya virus [26] = assay: Antiviral activity against Chikungunya virus LR2006-OPY1 infected in human Huh7.5 cells after 48 hrs by luciferase reporter gene assay; format: functional, organism-based; conditions: LR2006-OPY1, Huh7.5, 48 h
Chikungunya virus [27] = assay: Antiviral activity against Chikungunya virus KC969208 infected in African green monkey Vero cells after 48 hrs by MTT dye-based assay; format: functional, organism-based
[28] = Cytotoxicity against African green monkey Vero cells assessed as reduction in cell viability after 4 days by MTT assay; format: cell-based; conditions: chlorocebus sabaeus
Chikungunya virus [29] = assay: Antiviral activity against Chikungunya virus KC969207 infected in African green monkey Vero cells after 48 hrs by MTT dye-based assay; format: functional, organism-based
[30] = Selectivity index, ratio of CC50 for African green monkey Vero cells to IC50 for Chikungunya virus KC969208; format: toxicity; conditions: read-out: Ratio CC50/IC50
[31] = Selectivity index, ratio of CC50 for African green monkey Vero cells to IC50 for Chikungunya virus KC969207; format: toxicity; conditions: read-out: Ratio CC50/IC50
Chikungunya virus [32] = assay: Antiviral activity against Chikungunya virus 899 infected in African green monkey Vero-A cells assessed as inhibition of viral-induced cytopathic effect measured on day 7 post infection by MTS/PMS assay; format: functional, organism-based; conditions: Chikungunya virus, 899, 168 h
[33] = Cytotoxicity against African green monkey Vero cells by neutral red dye uptake assay; format: cell-based; conditions: chlorocebus sabaeus
[34] = Selectivity index, ratio of CC50 for African green monkey Vero cells to IC50 for Chikungunya virus DRDE-06; format: toxicity; conditions: read-out: Ratio CC50/IC50
Chikungunya virus [35] = assay: Antiviral activity against Chikungunya virus isolate DRDE-06 infected in African green monkey Vero cells by neutral red dye uptake assay; format: functional, organism-based; conditions: isolate DRDE-06, Vero

Work on CC(=O)C(C)/C(C)=C/C(=O)O[C@@H]1[C@H](C)C[C@H]2O[C@]1(O)[C@@H](O)[C@H]1CC[C@H](O1)C(C)(C)/C=C/[C@H](C)C2=O (some centres undefined) yielded an EC50 (Chikungunya virus [1]) of 7 µM and a selectivity ratio [2] of 8.8.

In the case of C/C(=C\C(=O)O[C@@H]1[C@H](C)C[C@H]2O[C@]1(O)[C@@H](O)[C@H]1CC[C@H](O1)C(C)(C)/C=C/[C@H](C)C2=O)C(C)O (some centres undefined), the EC50 (Chikungunya virus [1]) is reported as 34 µM and the selectivity ratio [2] is reported as 3.2.

In the case of CN(C)CC1CCn2c(cc3ccc(C4=C(c5cn(C)c6ccccc56)C(=O)NC4=O)cc32)C1 (centres undefined), the CC50 (Vero) is reported as 35 µM and the EC50 (Chikungunya virus [3]) is reported as > 6 µM.

In the case of CCOC(=O)c1c(CS(=O)(=O)c2ccccc2)n(C)c2cc(Br)c(O)c(CN(C)C)c12, the IC50 (Chikungunya virus [4]) is reported as > 56.4 µM.

CCOC(=O)c1c(C[S+]([O-])c2ccccc2)n(C)c2cc(Br)c(O)c(CN(C)C)c12 (centres undefined) showed an IC50 (Chikungunya virus [4]) of 54.5 µM.

O=c1cnn([C@@H]2O[C@H](CO)[C@@H](O)[C@H]2O)c(=O)[nH]1 [6-AZAURIDINE] showed an EC50 (Chikungunya virus [5]) of 0.82 µM.

With CCCCCCCC(=O)O[C@H]1/C(=C/C(=O)OC)C[C@H]2C[C@H](CC(=O)OC)OC(=O)CCOc3ccc(-c4c(OC)cccc4OC)cc3C(=O)OCC(C)(C)[C@]1(O)O2 the EC50 (Chikungunya virus [6]) was 4 µM, the CC50 at 5 days [7] was > 50 µM and the EC50 (Chikungunya virus [8]) was 2.1 µM. It also gave an EC50 (Chikungunya virus [9]) of 2 µM.

In the case of CCOc1ccc(/C=N/NC(=O)C2CC2c2ccc(C(C)(C)C)cc2)cc1OCC (centres undefined), the selectivity ratio [10] is reported as 14.

Compound CC(=O)Oc1ccccc1C(=O)Nc1ncc([N+](=O)[O-])s1 [NITAZOXANIDE] has a CC50 at 16 h [11] of 25 µM, a selectivity ratio [12] of 5.05 and an EC50 (Chikungunya virus [13]) of 2.96 µM. For the same compound, the EC50 (Chikungunya virus [14]) was 3.01 µM, the selectivity ratio [15] was 8.31 and the CC50 at 16 h [16] was 25 µM. For the same compound, the EC50 (Chikungunya virus [17]) was 4.95 µM, the EC50 (Chikungunya virus [18]) was 1.96 µM and the selectivity ratio [19] was 8.45. The selectivity ratio [20] was 12.8.

CC[C@H](C)[C@H]1O[C@]2(CC[C@@H]1C)C[C@@H]1C[C@@H](C/C=C(\C)[C@@H](O[C@H]3C[C@H](OC)[C@@H](O[C@H]4C[C@H](OC)[C@@H](O)[C@H](C)O4)[C@H](C)O3)[C@@H](C)/C=C/C=C3\CO[C@]4(O)[C@H](O)C(C)=C[C@@H](C(=O)O1)[C@]34O)O2 gave a CC50 [21] of 8 µM, a selectivity ratio [22] of 62.4 and a CC50 [23] of 37.9 µM. The EC50 (Chikungunya virus [24]) was 0.6 µM, the selectivity ratio [25] was 4.1 and the EC50 (Chikungunya virus [26]) was 1.9 µM.

Work on CC(C)CCCC(C)CCCC(C)CCCC(C)CCO (centres undefined) yielded an IC50 (Chikungunya virus [27]) of 112 µM, a CC50 at 96 h [28] of 259 µM and an IC50 (Chikungunya virus [29]) of 1.66 µM. The selectivity ratio [30] was 2.11 and the selectivity ratio [31] was 156.

NC(=O)c1nccnc1O showed an EC50 (Chikungunya virus [32]) of 7 µM.

In the case of COc1c(C)c2c(c(O)c1C/C=C(\C)CCC(=O)O)C(=O)OC2 [MYCOPHENOLIC ACID], the CC50 [33] is reported as 30 µM, the selectivity ratio [34] is reported as 300 and the IC50 (Chikungunya virus [35]) is reported as 0.1 µM.
